# Data from patent US20220242894A1, “Ruthenium (II) Complexes and Their Use as AntiCancer Agents” (Paris Sciences et Lettres, priority 2019, published 2022).
# Where two headings read alike, the source gives them in different places.
# Columns and labels:
# HeLa (human cervical) = assay: Cytotoxicity, fluorometric cell viability assay (resazurin), HeLa; format: cell-based; conditions: read-out: IC50 (μM) HeLa
# Method: (§1) HeLa and CT-26 cell lines were cultured in DMEM media (Gibco) supplemented with 10% of fetal calf serum (Gibco). CT-26 LUC cell line was cultured in DMEM media (Gibco) supplemented with 10% of fetal calf serum (Gibco) and 1% Genticin. RPE-1 cell line was cultured in DMEM/F-12 media (Gibco) supplemented with 10% of fetal calf serum. […] The resistance of A2780 cis was maintained by cisplatin treatment (1 μM) for one week every month. […] U87 cell line was cultured in MEM media (Gibco) supplemented with 10% of fetal calf serum (Gibco) and 1% of non-essential amino acid mixture (Gibco). Cell lines were complemented with 100 U/ml penicillin-streptomycin mixture (Gibco) and maintained in humidified atmosphere at 37° C. and 5% of CO2.
# (§2) Cytotoxicity of the tested Ru compounds according to the present invention was assessed by a fluorometric cell viability assay using Resazurin (ACROS Organics). […] After 24 h, cells were treated with increasing concentrations of the compounds. Compounds dilutions were prepared as follows: 2.5 mM stock in DMSO was further diluted to 100 μM with media and then filtrated. After 48 h incubation, medium was removed, and 100 μl of complete medium containing resazurin (0.2 mg/ml final concentration) was added. […] IC50 values were then calculated using GraphPad Prism software.
# [1] = test system: A2780 (human ovarian carcinoma); assay: Cytotoxicity, fluorometric cell viability assay (resazurin), A2780; format: cell-based; conditions: read-out: IC50 (μM) A2780
# Method: as §1, §2
# [2] = test system: A2780 ADR (human doxorubicin resistant ovarian carcinoma); assay: Cytotoxicity, fluorometric cell viability assay (resazurin), A2780 ADR; format: cell-based
# Method: as §1, §2
# [3] = test system: A2780 cis (human cisplatin resistant ovarian carcinoma); assay: Cytotoxicity, fluorometric cell viability assay (resazurin), A2780 cis; format: cell-based; conditions: read-out: IC50 (μM) A2780 cis
# Method: as §1, §2
# [4] = test system: CT-26 (mouse colon adenocarcinoma); assay: Cytotoxicity, fluorometric cell viability assay (resazurin), CT-26; format: cell-based; conditions: read-out: IC50 (μM) CT-26
# Method: as §1, §2
# [5] = test system: CT-26 LUC (mouse colon adenocarcinoma stably expressing luciferase); assay: Cytotoxicity, fluorometric cell viability assay (resazurin), CT-26 LUC; format: cell-based; conditions: read-out: IC50 (μM) CT-26 luc
# Method: as §1, §2
# [6] = test system: RPE-1 (normal retina pigmented epithelial); assay: Cytotoxicity, fluorometric cell viability assay (resazurin), RPE-1; format: cell-based; conditions: read-out: IC50 (μM) RPE-1
# Method: as §1, §2
# HeLa cells [7] = assay: Ruthenium cellular uptake and subcellular distribution by ICP-MS, HeLa; format: cell-based, human; conditions: 5 μM
# Method: All the treatments were set up at the same concentration for comparative purposes. The medium was then removed, the cells washed with PBS and trypsinized. […] The organelles were then isolated via differential centrifugation. To separate lysosomes, a Lysosome Isolation Kit (Cat. Nr: LYSISO1, Sigma Aldrich) as well as the manufacturer procedure with minor modification was used. Briefly, the collected pellets were redissolved in 2.0 ml of extraction buffer added with proteases cocktail (delivered with the kit) and incubated for 15 min on ice. The samples were then homogenized with a pre-chilled dounce homogenizer (7 ml, tight pestle A, 22 strokes) and centrifuged at 1000 g for 10 min at 4° C. […] These steps of the isolation procedure were monitored under phase contrast microscope on Menzel-Glaser coverslips (Olympus IX81 microscope).
# The supernatant was transferred in a fresh tube and centrifuged at 14000 g for 30 min at 4° C. […] The intact lysosomal content was proofed with Neutral-Red Reagent (delivered in the kit) with dual-wavelength absorbance mode at 460 and 510 nm over a kinetic of 3 minutes in a Spectramax M5 microplate reader (Molecular Devices). […]
# Ruthenium content of the samples was determined by means of a 7-step serial dilution in the range between 0 and 300 ppb in Ru (R>0.99) with a background equivalent concentration of BEC: 6.3 ppt and a detection limit of DL: 17 ppt. […]
# [8] = test system: mitochondrial metabolism (oxidative phosphorylation) in CT-26 cell line; assay: Seahorse Mitostress test; format: cell-based, mouse; conditions: CT-26, 1 μM, 24 h incubation
# Method: (§3) The preference of compound 1 to accumulate in the nucleus and mitochondria in HeLa cells inspired further studies on metabolic pathways that could be affected by the compound. For this purpose, Seahorse XF Analyzer was used. […] The effect on the other metabolic pathways, i.e. glycolysis and the possible metabolic modulation of the three primary fuel pathways, i.e. glucose, glutamine and fatty acid were then examined.
# CT-26 cells were seeded in Seahorse XFe96 well plates at a density of 30,000 cells/well in 80 μL. […] After 24 h of incubation, the regular media was removed and the cells were washed thrice using bicarbonate and serum free DMEM, supplemented with glucose, 1.8 mg/mL; 1% glutamine and 1% sodium pyruvate and incubated in a non-CO2 incubator at 37° C. for 1 h. Mitostress assay was run using Oligomycin, 1 μM, FCCP 1 μM and mixture of Antimycin-A/Rotenone 1 μM each in ports A, B and C respectively using Seahorse XFe96 Extracellular Flux Analyzer.
# [9] = test system: glycolysis in CT-26 cells; assay: Seahorse glycolytic stress test; format: cell-based, mouse; conditions: CT-26, 1 μM, 24 h incubation
# Method: as §3
# CT-26 cells were seeded in Seahorse XFe96 well plates at a density of 30,000 cells/well in 80 μL. […] After 24 h of incubation, the regular media was removed and the cells were washed thrice using bicarbonate, glucose and serum free DMEM, supplemented 1% glutamine and 1% sodium pyruvate and incubated in a non-CO2 incubator at 37° C. for an hour. Glycolytic stress test was run using glucose, 10 mM, Oligomycin, 1 μM and 2-Deoxyglucose, 50 mM in ports A, B and C respectively using Seahorse XFe96 Extracellular Flux Analyzer.
# [10] = test system: fuel pathways (glucose, glutamine, fatty acid) in CT-26 cells; assay: Seahorse fuel flex assay; format: cell-based, mouse; conditions: CT-26, 1 μM, 24 h incubation
# Method: as §3
# CT-26 cells were seeded in Seahorse XFe96 well plates at a density of 30,000 cells/well in 80 μL. […] After 24 h of incubation, the regular media was removed and the cells were washed thrice using bicarbonate, and serum free DMEM, supplemented with 1.8 mg/mL glucose, 1% glutamine and 1% sodium pyruvate and incubated in a non-CO2 incubator at 37° C. for an hour. Fuel flex assay for the different fuel pathways viz. glucose, glutamine and fatty acid was studied by measuring the basal oxygen consumption rates and that after addition of the inhibitor of the target pathway in port A and a mixture of the inhibitors of the other two pathways in port B. This gave a measure of the dependency of the cells on a fuel pathway. To study the capacity of a certain fuel pathway, the sequence of addition of the inhibitors was reversed. In port A was added the mixture of inhibitors for the other pathways and in port B was added the inhibitor for the target pathway. […]
# HeLa cells [11] = assay: Annexin V/PI assay (cell death mechanism); conditions: 10 μM
# Excerpt: For this experiment, Annexin V and PI staining method were utilised on HeLa cells.^15 Staurosporin, a known inducer of apoptosis, was used as a positive control.
# [12] = Dose-finding study, maximum tolerated dose; conditions: healthy mice, i.p., weight loss limit 10% over 14 days
# [13] = test system: MRC-5 (normal lung fibroblasts); assay: Ruthenium cellular accumulation by ICP-MS, MRC5
# Method: All the fractions (mitochondria, lysosomes and nucleus) were isolated from the same cellular sample for direct comparative purposes. The supernatant phases discarded during the isolation of nuclei, lysosomes and mitochondria procedures were collected and formed the “residual” fraction. An aliquot of crude lysate after homogenization, nuclear, mitochondrial (pellet lysed via freeze and thaw cycles followed by 20 minutes incubation in ultrasonic bath), lysosomal and residual fraction was each used for protein quantification using the Bradford method. The isolated samples were then lyophilized on an Alpha 2-4 LD plus (CHRIST). The resulting samples underwent chemical digestion with 10 mL of a 2% nitrohydrochloric acid solution for 24 h. The resulting suspensions were filtered on 0.20 μm non-pyrogenic sterile Filtropur filters (Sarstedt) and the obtained samples were injected in ICP-MS.
# Ruthenium content of the samples was determined by means of a 7-step serial dilution in the range between 0 and 300 ppb in Ru (R>0.99) with a background equivalent concentration of BEC: 6.3 ppt and a detection limit of DL: 17 ppt. […] A solution of Indium (500 ppb) and Tungsten (500 ppb) was used as internal standard.
# [14] = Homo sapiens, A2780, 48 h incubation
# [15] = Homo sapiens, A2780 ADR, 48 h; read-out: IC50 (μM) A2780 ADR
# [16] = Homo sapiens, A2780cis, A2780 cis (cisplatin resistant), 48 h incubation
# [17] = Mus musculus, CT26, CT-26, 48 h incubation
# [18] = Mus musculus, CT26, CT-26 luc, 48 h incubation
# [19] = Homo sapiens, RPE-1 normal cells, 48 h incubation
# [20] = A2780 ADR (doxorubicin resistant), 48 h incubation; read-out: IC50 (μM) A2780 ADR
# [21] = A2780 cis (cisplatin resistant), 48 h incubation
# [22] = RPE-1 normal cells, 48 h incubation
compound,measurement,setting,value
COc1cccc(O)c1O [3-methoxycatechol],IC50,"HeLa (human cervical); Homo sapiens, 48 h incubation",56.2 ± 4.18 µM
same,IC50,[1]; [14],18.7 ± 1.17 µM
same,IC50,[2]; [15],30.1 ± 1.35 µM
same,IC50,[3]; [16],36.5 ± 1.94 µM
same,IC50,[4]; [17],45.7 ± 4.21 µM
same,IC50,[5]; [18],36.4 ± 6.28 µM
same,IC50,[6]; [19],> 100 µM
Cc1cccc(O)c1O [3-methylcatechol],IC50,"HeLa (human cervical); Homo sapiens, 48 h incubation",> 100 µM
same,IC50,[1]; [14],9.99 ± 1.26 µM
same,IC50,[2]; [15],2.71 ± 0.82 µM
same,IC50,[3]; [16],14.7 ± 0.69 µM
same,IC50,[4]; [17],17.5 ± 0.73 µM
same,IC50,[5]; [18],12.1 ± 1.4 µM
same,IC50,[6]; [19],> 100 µM
Cc1ccc(O)c(O)c1 [4-methylcatechol],IC50,"HeLa (human cervical); Homo sapiens, 48 h incubation",> 100 µM
same,IC50,[1]; [14],15.2 ± 1 µM
same,IC50,[2]; [15],29.3 ± 1.96 µM
same,IC50,[3]; [16],34.6 ± 1.49 µM
same,IC50,[4]; [17],34.4 ± 1.41 µM
same,IC50,[5]; [18],33.3 ± 3.4 µM
same,IC50,[6]; [19],> 100 µM
O=[N+]([O-])c1ccc(O)c(O)c1 [4-nitrocatechol],IC50,"HeLa (human cervical); Homo sapiens, 48 h incubation",> 100 µM
same,IC50,[1]; [14],30.9 ± 2.05 µM
same,IC50,[2]; [15],61.5 ± 3.63 µM
same,IC50,[3]; [16],> 100 µM
same,IC50,[4]; [17],17.5 ± 1.02 µM
same,IC50,[5]; [18],15.3 ± 1 µM
same,IC50,[6]; [19],45 ± 19 µM
CC(C)(C)c1ccc(O)c(O)c1 [4-tertbutylcatechol],IC50,"HeLa (human cervical); Homo sapiens, 48 h incubation",93.1 ± 9.8 µM
same,IC50,[1]; [14],9.14 ± 0.7 µM
same,IC50,[2]; [15],12.9 ± 1.2 µM
same,IC50,[3]; [16],14.6 ± 0.81 µM
same,IC50,[4]; [17],9.94 ± 0.63 µM
same,IC50,[5]; [18],9.72 ± 0.67 µM
same,IC50,[6]; [19],55.1 ± 4.64 µM
COc1cccc2c1C(=O)c1c(O)c3c(c(O)c1C2=O)C[C@@](O)(C(=O)CO)C[C@@H]3O[C@H]1C[C@H](N)[C@H](O)[C@H](C)O1 [Doxorubicin],IC50,"HeLa (human cervical); Homo sapiens, 48 h incubation",0.34 ± 0.02 µM
same,IC50,[1]; [14],0.19 ± 0.03 µM
same,IC50,[2]; [15],5.94 ± 0.58 µM
same,IC50,[3]; [16],0.54 ± 0.04 µM
same,IC50,[4]; [17],0.082 ± 0.003 µM
same,IC50,[6]; [19],0.89 ± 0.17 µM
"Cc1occc(=O)c1O [Maltol, 3-Hydroxy-2-methyl-4H-pyran-4-one]",IC50,"HeLa (human cervical); Homo sapiens, 48 h incubation",74 ± 14.6 µM
same,IC50,[1]; [14],> 100 µM
same,IC50,[2]; [15],> 100 µM
same,IC50,[3]; [16],> 100 µM
same,IC50,[4]; [17],> 100 µM
same,IC50,[5]; [18],> 100 µM
same,IC50,[6]; [19],> 100 µM
[Cl-].[Cl-].[Ru+2].c1ccc(-c2ccnc3c2ccc2c(-c4ccccc4)ccnc23)cc1.c1ccc(-c2ccnc3c2ccc2c(-c4ccccc4)ccnc23)cc1 [Ru(DIP)2Cl2],IC50,HeLa (human cervical); 48 h incubation,15 ± 0.4 µM
same,IC50,"[1]; A2780, 48 h incubation",4.69 ± 0.14 µM
same,IC50,[2]; [20],78.3 ± 4.9 µM
same,IC50,[3]; [21],6.36 ± 0.57 µM
same,IC50,"[4]; CT-26, 48 h incubation",9.2 ± 1.22 µM
same,IC50,"[5]; CT-26 luc, 48 h incubation",6.65 ± 0.5 µM
same,IC50,[6]; [22],3.13 ± 0.07 µM
Oc1c(O)c(Br)c(Br)c(Br)c1Br [Tetrabromocatechol],IC50,"HeLa (human cervical); Homo sapiens, 48 h",29.9 ± 1.6 µM
same,IC50,"[1]; Homo sapiens, A2780, 48 h",8.75 ± 0.2 µM
same,IC50,"[2]; Homo sapiens, A2780 ADR, 48 h, read-out: IC50 (μM) A2780 ADR",14.4 ± 1.18 µM
same,IC50,"[3]; Homo sapiens, A2780cis, 48 h",13.6 ± 0.88 µM
same,IC50,"[4]; Mus musculus, CT26, 48 h",5.53 ± 0.37 µM
same,IC50,"[5]; Mus musculus, CT26, 48 h",3.8 ± 0.34 µM
same,IC50,"[6]; Homo sapiens, RPE-1, 48 h",13.5 ± 1.7 µM
Oc1ccccc1O [catechol],IC50,"HeLa (human cervical); Homo sapiens, 48 h incubation",> 100 µM
same,IC50,[1]; [14],22.4 ± 5.83 µM
same,IC50,[2]; [15],> 100 µM
same,IC50,[3]; [16],56 ± 9.46 µM
same,IC50,[4]; [17],16 µM
same,IC50,[5]; [18],11.5 ± 0.4 µM
same,IC50,[6]; [19],> 100 µM
Ru(DIP)2(4-Nitrocat) [Compound 8],IC50,HeLa (human cervical); 48 h incubation,10 ± 0.44 µM
same,IC50,"[1]; A2780, 48 h incubation",12.4 ± 0.8 µM
same,IC50,[2]; [20],18.6 ± 2.02 µM
same,IC50,[3]; [21],16.4 ± 2.04 µM
same,IC50,"[4]; CT-26, 48 h incubation",7.61 ± 0.11 µM
same,IC50,"[5]; CT-26 luc, 48 h incubation",9.01 ± 0.19 µM
same,IC50,[6]; [22],16.6 ± 0.98 µM
[Ru(DIP)2(Sq)](PF6) [Compound 1],subcellular accumulation of ruthenium,"HeLa cells [7]; 2 h, fractionated",preferential accumulation inside the nucleus
same,cellular uptake (internalization),HeLa cells [7]; after 2 h,Near complete internalization
same,ATP production,[8],inhibited
same,mitochondrial respiration,[8],severely impaired
same,glycolysis of the cells,[9],not affected
same,effect on the 3 primary fuel pathways,[10],no direct effect
same,induction of apoptosis/necrosis,HeLa cells [11]; 30 min after treatment,induces apoptosis
same,type of cell death,HeLa cells [11]; 4 h or 24 h incubation,apoptosis as a main type of the cell death
same,maximum tolerated dose (MTD),[12],15 mg/kg of body weight
same,compound taken up by healthy cells,[13],less than 25%
[Ru(DIP)2(Tetrabromocat)] [Compound 5],IC50,HeLa (human cervical); 48 h incubation,10.5 ± 0.25 µM
same,IC50,"[1]; A2780, 48 h incubation",10.2 ± 0.14 µM
same,IC50,[2]; [20],15 ± 0.75 µM
same,IC50,[3]; [21],17.2 ± 1.4 µM
same,IC50,"[4]; CT-26, 48 h incubation",10.5 ± 0.5 µM
same,IC50,"[5]; CT-26 luc, 48 h incubation",11.6 ± 0.7 µM
same,IC50,[6]; [22],23.2 ± 2.5 µM
